From ChEMBL document CHEMBL2440076, “New triarylpyrazoles as broad-spectrum anticancer agents: design, synthesis, and biological evaluation” (Eur J Med Chem, 2013)

Key:
Format in all cases: functional
IGROV-1 [1] = assay: Growth inhibition of human IGROV1 cells assessed as cell growth at 5X10'-9 M after 48 hrs by sulforhodamine B assay; conditions: IGROV-1, 48 h, read-out: Activity
HCT-15 [2] = assay: Growth inhibition of human HCT15 cells assessed as cell growth at 5X10'-7 M after 48 hrs by sulforhodamine B assay; conditions: HCT-15, 48 h, read-out: Activity
MOLT-4 [3] = assay: Growth inhibition of human MOLT4 cells assessed as cell growth at 5X10'-5 M after 48 hrs by sulforhodamine B assay; conditions: MOLT-4, 48 h, read-out: Activity
SNB-75 [4] = assay: Growth inhibition of human SNB75 cells assessed as cell growth at 5X10'-9 M after 48 hrs by sulforhodamine B assay; conditions: SNB-75, 48 h, read-out: Activity
OVCAR-5 = assay: Growth inhibition of human OVCAR5 cells assessed as cell growth at 5X10'-8 M after 48 hrs by sulforhodamine B assay; conditions: OVCAR-5, 48 h, read-out: Activity
ACHN [5] = assay: Growth inhibition of human ACHN cells assessed as cell growth at 5X10'-6 M after 48 hrs by sulforhodamine B assay; conditions: read-out: Activity
Malme-3M [6] = assay: Growth inhibition of human MALME-3M cells assessed as cell growth at 5X10'-6 M after 48 hrs by sulforhodamine B assay; conditions: read-out: Activity
SR [7] = assay: Growth inhibition of human SR cells assessed as cell growth at 5X10'-6 M after 48 hrs by sulforhodamine B assay; conditions: read-out: Activity
SR [8] = assay: Growth inhibition of human SR cells assessed as cell growth at 5X10'-9 M after 48 hrs by sulforhodamine B assay; conditions: read-out: Activity
HOP-62 = assay: Growth inhibition of human HOP62 cells assessed as cell growth at 5X10'-8 M after 48 hrs by sulforhodamine B assay; conditions: HOP-62, 48 h, read-out: Activity
UO-31 = assay: Growth inhibition of human UO31 cells assessed as cell growth at 5X10'-9 M after 48 hrs by sulforhodamine B assay; conditions: UO-31, 48 h, read-out: Activity
SNB-19 = assay: Growth inhibition of human SNB19 cells assessed as cell growth at 5X10'-6 M after 48 hrs by sulforhodamine B assay; conditions: SNB-19, 48 h, read-out: Activity
[9] = Growth inhibition of human NCI-ADR-RES cells assessed as cell growth at 5X10'-8 M after 48 hrs by sulforhodamine B assay; conditions: read-out: Activity
SF-539 [10] = assay: Growth inhibition of human SF539 cells assessed as cell growth at 5X10'-5 M after 48 hrs by sulforhodamine B assay; conditions: SF-539, 48 h, read-out: Activity
MCF7 = assay: Growth inhibition of human MCF7 cells assessed as cell growth at 5X10'-9 M after 48 hrs by sulforhodamine B assay; conditions: MCF7, 48 h, read-out: Activity
RXF 393 = assay: Growth inhibition of human RXF393 cells assessed as cell growth at 5X10'-6 M after 48 hrs by sulforhodamine B assay; conditions: RXF 393, 48 h, read-out: Activity
SK-MEL-28 [11] = assay: Growth inhibition of human SK-MEL-28 cells assessed as cell growth at 5X10'-5 M after 48 hrs by sulforhodamine B assay; conditions: SK-MEL-28, 48 h, read-out: Activity
ACHN [12] = assay: Growth inhibition of human ACHN cells assessed as cell growth at 5X10'-9 M after 48 hrs by sulforhodamine B assay; conditions: read-out: Activity
SK-MEL-28 [13] = assay: Growth inhibition of human SK-MEL-28 cells assessed as cell growth at 5X10'-6 M after 48 hrs by sulforhodamine B assay; conditions: SK-MEL-28, 48 h, read-out: Activity
OVCAR-3 [14] = assay: Growth inhibition of human OVCAR3 cells assessed as cell growth at 5X10'-8 M after 48 hrs by sulforhodamine B assay; conditions: OVCAR-3, 48 h, read-out: Activity
OVCAR-3 [15] = assay: Growth inhibition of human OVCAR3 cells assessed as cell growth at 5X10'-5 M after 48 hrs by sulforhodamine B assay; conditions: OVCAR-3, 48 h, read-out: Activity
MOLT-4 [16] = assay: Growth inhibition of human MOLT4 cells assessed as cell growth at 5X10'-8 M after 48 hrs by sulforhodamine B assay; conditions: MOLT-4, 48 h, read-out: Activity
HOP-92 = assay: Growth inhibition of human HOP92 cells assessed as cell growth at 5X10'-7 M after 48 hrs by sulforhodamine B assay; conditions: HOP-92, 48 h, read-out: Activity
SN12C = assay: Growth inhibition of human SN12C cells assessed as cell growth at 5X10'-8 M after 48 hrs by sulforhodamine B assay; conditions: read-out: Activity
HCT-15 [17] = assay: Growth inhibition of human HCT15 cells assessed as cell growth at 5X10'-8 M after 48 hrs by sulforhodamine B assay; conditions: HCT-15, 48 h, read-out: Activity
T47D = assay: Growth inhibition of human T47D cells assessed as cell growth at 5X10'-6 M after 48 hrs by sulforhodamine B assay; conditions: read-out: Activity
LOX IMVI [18] = assay: Growth inhibition of human LOXIMVI cells assessed as cell growth at 5X10'-5 M after 48 hrs by sulforhodamine B assay; conditions: read-out: Activity
Malme-3M [19] = assay: Growth inhibition of human MALME-3M cells assessed as cell growth at 5X10'-9 M after 48 hrs by sulforhodamine B assay; conditions: read-out: Activity
UACC-257 = assay: Growth inhibition of human UACC257 cells assessed as cell growth at 5X10'-8 M after 48 hrs by sulforhodamine B assay; conditions: UACC-257, 48 h, read-out: Activity
TK-10 = assay: Growth inhibition of human TK10 cells assessed as cell growth at 5X10'-5 M after 48 hrs by sulforhodamine B assay; conditions: TK-10, 48 h, read-out: Activity
PC-3 = assay: Growth inhibition of human PC3 cells assessed as cell growth at 5X10'-7 M after 48 hrs by sulforhodamine B assay; conditions: PC-3, 48 h, read-out: Activity
[20] = Growth inhibition of human Hs 578T cells assessed as cell growth at 5X10'-8 M after 48 hrs by sulforhodamine B assay; conditions: read-out: Activity
IGROV-1 [21] = assay: Growth inhibition of human IGROV1 cells assessed as cell growth at 5X10'-6 M after 48 hrs by sulforhodamine B assay; conditions: IGROV-1, 48 h, read-out: Activity
SR [22] = assay: Growth inhibition of human SR cells assessed as cell growth at 5X10'-8 M after 48 hrs by sulforhodamine B assay; conditions: read-out: Activity
[23] = Growth inhibition of human HCC2998 cells assessed as cell growth at 5X10'-6 M after 48 hrs by sulforhodamine B assay; conditions: HCC 2998, 48 h, read-out: Activity
SNB-75 [24] = assay: Growth inhibition of human SNB75 cells assessed as cell growth at 5X10'-7 M after 48 hrs by sulforhodamine B assay; conditions: SNB-75, 48 h, read-out: Activity
NCI-H23 = assay: Growth inhibition of human NCI-H23 cells assessed as cell growth at 5X10'-8 M after 48 hrs by sulforhodamine B assay; conditions: NCI-H23, 48 h, read-out: Activity
SF-539 [25] = assay: Growth inhibition of human SF539 cells assessed as cell growth at 5X10'-8 M after 48 hrs by sulforhodamine B assay; conditions: SF-539, 48 h, read-out: Activity
LOX IMVI [26] = assay: Growth inhibition of human LOXIMVI cells assessed as cell growth at 5X10'-6 M after 48 hrs by sulforhodamine B assay; conditions: read-out: Activity

## COc1cc(-c2nn(-c3cccc(NC(=O)Nc4ccc(Cl)c(Cl)c4)c3)cc2-c2ccncc2)ccc1Cl
IGROV-1 [1]
  growth at 0.005 µM: 97%
HCT-15 [2]
  growth at 0.5 µM: 76%
MOLT-4 [3]
  growth at 50 µM: -19%
SNB-75 [4]
  growth at 0.005 µM: 86%
OVCAR-5
  growth at 0.05 µM: 90%
ACHN [5]
  growth at 5 µM: 3%
Malme-3M [6]
  growth at 5 µM: -38%
SR [7]
  growth at 5 µM: -26%
SR [8]
  growth at 0.005 µM: 99%
HOP-62
  growth at 0.05 µM: 97%
UO-31
  growth at 0.005 µM: 88%
SNB-19
  growth at 5 µM: 21%
[9]
  growth at 0.05 µM: 106%
SF-539 [10]
  growth at 50 µM: -37%
MCF7
  growth at 0.005 µM: 91%
RXF 393
  growth at 5 µM: -34%
SK-MEL-28 [11]
  growth at 50 µM: -6%
ACHN [12]
  growth at 0.005 µM: 99%
SK-MEL-28 [13]
  growth at 5 µM: 1%
OVCAR-3 [14]
  growth at 0.05 µM: 111%
OVCAR-3 [15]
  growth at 50 µM: -50%
MOLT-4 [16]
  growth at 0.05 µM: 113%
HOP-92
  growth at 0.5 µM: 35%
SN12C
  growth at 0.05 µM: 94%
HCT-15 [17]
  growth at 0.05 µM: 95%
T47D
  growth at 5 µM: 9%
LOX IMVI [18]
  growth at 50 µM: -45%
Malme-3M [19]
  growth at 0.005 µM: 103%
UACC-257
  growth at 0.05 µM: 88%
TK-10
  growth at 50 µM: -1%
PC-3
  growth at 0.5 µM: 53%
[20]
  growth at 0.05 µM: 94%
IGROV-1 [21]
  growth at 5 µM: -17%
SR [22]
  growth at 0.05 µM: 105%
[23]
  growth at 5 µM: 2%
SNB-75 [24]
  growth at 0.5 µM: 74%
NCI-H23
  growth at 0.05 µM: 101%
SF-539 [25]
  growth at 0.05 µM: 85%
LOX IMVI [26]
  growth at 5 µM: -32%
